Experimental data as given in US6590123B2, “Aminobenzoic acid derivatives having anti-tumorigenic activity, methods of making and using the same” (Mount Sinai School of Medicine of New York University, priority 1998, dated 2003).
Where “and” joins values, the source holds several entries; their conditions need not be identical. Equal entries are not always repeated. Entries after “also recorded” stand apart in the source; their conditions may differ. Structures can show the parent of a compound that is named as a salt. Where two headings read alike, the source gives them in different places.

Legend:
CEM cells [1] = assay: Cytotoxicity, ID50 and ID90 by trypan blue staining; assay type: cell-based; conditions: for IC90 / IC50: Homo sapiens, CCRF-CEM; for IC90: 48 h; for IC50: 48 hr, NT = Non-toxic to CEM cells
Experimental: CEM cells, a human T-cell lymphoblastoid leukemia cell line (American Type Culture Collection, Rockville, Md.), were cultured in suspension (Iscove's Dulbecco's Medium) supplemented with 10% heat inactivated fetal bovine serum (FBS), penicillin (250 μ/ml) and streptomycin (250 μl/ml). Cells were incubated at 37° C. in 5% C02 and only those cells in exponential growth were used.
CEM cells were seeded into 96-well microplates (Falcon, Oxnard, Calif.) at 10^5 cell per well, then treated with 0-10 μg/ml of the candidate compounds for 48 h at 37° C. yielding a total volume of 250 μ/well. Cell viability was assessed by trypan blue staining. ID50 and ID90 were defined as the concentration killing 50% or 90% of the cells in comparison with untreated controls, and calculated by non-linear regression analysis.
Cells in suspension culture were seeded into 96-well microplates (Falcon, Oxnard, Calif.) at 10^5 cell per well, followed, by treatment with 0-10 μg/ml of the candidate compounds for 48 hr at 37° C. with total volume of 250 μl per well. Cell viability was assessed by trypan blue exclusion.
The ID50 and ID90 was determined in duplicate in every set of experiments, and each experiment was repeated 3 times under identical conditions. ID50 and ID90 were defined as drug concentrations that induced 50% or 90% cellular death in comparison with untreated controls and calculated by non-linear regression analysis. […]

CEM cells [2] = assay: Morphology by microscopy (mitotic arrest, apoptosis, necrosis); assay type: cell-based, human; conditions: for Activities of inducing Apoptosis / Activities of inducing Mitotic block / Activities of inducing Necrosis / morphological effect on leukemic cells: CEM leukemic cells; for Activities of inducing Apoptosis / Activities of inducing Mitotic block / Activities of inducing Necrosis: % of affected cells; for Mitotic arrest, %: % of mitotic cells after 24 h incubation, optical microscopy
Experimental: Slides for examination of mitosis were prepared on a cytospin centrifuge (Shandon Southern Products Ltd, England ) at 700 g for 5 min. Slides were air dried, fixed in methanol and stained with Giemsa (Harleco, N.J.) at room temperature for 15 min. Cells in mitotic arrest were recognized by the disappearance of nuclear membrane and by the appearance of chromosomal scattering throughout the cytoplasm (reference 1). The % of mitotic cells were counted after 24 h incubation using optical microscopy. Apoptotic cells were identified using common criteria, i.e., shrinkage in cell size, chromatin condensation and fragmentation of the nucleus into discrete masses (reference 2).
Cell samples on slides were prepared by a Cytospin centrifuge (Shandon Southern Products Ltd, England) at 700 g for 5 min. The slides were air dried, fixed in methanol and stained with Giemsa (Harleco, N.J.) at room temperature for 15 min. Alterations of nuclei, membranes and morphological features were observed by light microscopy. Cells in mitotic phase were recognized by the appearance of their chromosomes dispersed in the cytoplasm, and by the disappearance of nuclear membrane. Apoptotic-cells were identified using previously defined criteria, i.e., shrinkage in cell size, chromatin condensation and fragmentation of the nucleus into discrete masses (references 2 & 3). Necrotic cells were differentiated from apoptotic cells by observing swollen cytoplasm and the disappearance of cell membrane prior to the destruction of the nucleus.

CEM cells [3] = assay: Cell cycle analysis by flow cytometry; assay type: cell-based, human; conditions: 8 h treatment, compound 6 2.5 μg/ml, compound 8 0.025 μg/ml, compound 9 0.005 μg/ml
CEM cells [4] = assay: DNA fragmentation by electrophoresis (apoptosis); assay type: cell-based, human; conditions: 48 hours, compound 8 0.025 μg/ml, compound 9 0.005 μg/ml, fluorine compound 5.0 μg/ml, chlorine compound 0.75 μg/ml
Experimental: DNA fragmentation was determined by a method reported previously (reference 3). Briefly, cells were treated in 1 ml lysis buffer (0.01M Tris. HCL pH 8.0, 0.01M NaCl, 0.01M EDTA pH 8.0 and 5% sodium dodecyl sulfate) containing 1 μg/ml protease K for 1 h at 50° C. The resulting products were extracted with phenol and chloroform:isoamylalcohol (24:1, v/v), and precipitated with ethanol followed by centrifugation at 7800 g (Sorvall RC-5B Du Pont, Newtown, Conn.). The ethanol was removed and the dry pellets of nucleic acid were resuspended in 10 mM Tris-HCL/1 mM EDTA solution. When DNA content was determined spectrophotometrically all samples had A260/A280 ratio≧2. The DNA samples were then treated with RNase (Sigma, St. Louis, Mo.) at a final concentration of 0.1 μg/μl for 20 min at 37° C. before gel loading. Approximately 4 μg size DNA aliquots were loaded onto horizontal agarose gel (1.5%) prepared with 1% ethidium bromide. Electrophoresis was performed at 75 volts for 2 h and the DNA patterns were visualized with UV light.
[…] After incubation, cells were washed twice in PBS. Cell pellets were resuspended in drug-free medium and incubated for 48 hr at 37° C. Cell viability, morphology, mitotic spindles, cell cycle distribution and apoptosis were determined 24 hr and 48 hr post pulse exposure.
Soluble DNA from cells was extracted by the method reported previously (14). Briefly, after washing with PBS, cells were treated in 1 ml lysis buffer (0.01 M Tris.HCL pH 8.0, 0.01 M NaCl, 0.01M EDTA pH 8.0 and 5% sodium dodecyl sulfate) containing 1 μg/ml proteinase K for 1 hr at 50° C. The resulting products were extracted with phenol and chloroform:isoamylalcohol (24:1, v/v), and precipitated with ethanol followed by centrifugation at 7800 g (Sorvall RC-5B Du Pont, Newtown, Conn.). The ethanol was removed and the dry pellet of nucleic acid was resuspended in 10 mM Tris-HCL/1 mM EDTA solution. DNA content was determined spectrophotometrically by measuring absorption at 260 nm (A260). All samples, had A260/A280≧2. The DNA samples were then treated with RNase (Sigma, St. Louis, Mo.) at a final concentration of 0.1 μg/l for 20 min at 37° C. before gel loading. The DNA sample (4 μg) was analyzed in 1.5% horizontal agarose gel prepared with 1% ethidium bromide. Electrophoresis was performed at 75 volts for 2 hours and the DNA migration was visualized under UV light.

Purified tubulin = assay: Inhibition of microtubule assembly by spectrophotometry, cell free system; assay type: biochemical, calf; conditions: cell free tubulin, up to 10 μg/ml
Experimental: Purified tubulin was purchased from Sigma (St. Louis, Mo.). The effects of compounds 6, 7, 8, 9, paclitaxel and vinblastine on the microtubule assembly-disassembly process were determined using conditions recommended by the vendor. For assembly inhibition, 100 μl tubulin solution (500-600 μg protein/ml) was mixed gently with 400 μl reaction buffer containing 0.1 M MES (2-[N-morpholino]ethane sulfonic acid), 1 mM EGTA ([…]-N,N,N′,N′-tetraacetic acid), 0.5 mM MgCl2, 0.1 mM EDTA and 2.5 M gycerol at 37° C. Compounds 6, 7, 8, and 9 were next added to each sample at final concentrations of 10, 10, 1 and 1 μg/ml, respectively. After adding GTP to each sample to a final concentration of 1 mM, the microtubule assembly process was monitored by measuring the change of absorbance (OD) at 350 nm on a spectrophotometer (Ultrospec III, Pharmacia LKB, Uppsala, Sweden). A completed assembly process was observed within 40 min at room temperature. For disassembly inhibition, compounds 6, 7, 8, and 9 were added, at the above concentrations, to covets with repolymerized microtubules as described above, and incubated in melting ice. Changes of absorbance (OD) were monitored at 350 nm for 30 min until the OD values in the controls returned to the starting level, i.e., when the assembly-disassembly cycle was completed.
Purified tubulin from calf brain was purchased from Sigma (St. Louis, Mo.). The effects of 3-BAABU (3-bromoacetoamido, benzoylurea) on the microtubule assembly-disassembly process were determined using the conditions recommended by the vendor. For assembly inhibition, 100 μl tubulin solution (500-600 μg protein/ml) was mixed gently with 400 μl reaction buffer containing 0.1 M MES, 1 mM EGTA, 0.5 mM MgCl2, 0.1 mM EDTA and 2.5 M glycerol at 37° C. 3-BAABU, paclitaxel or vinblastine were then added to each sample cuvet at final concentrations of 3.3, 23 or 22 μM, respectively. After adding GTP to each sample to a final concentration of 1 mM, the microtubule assembly process was monitored by measuring the change of absorbance (OD) every 5 min at 350 nm on a spectrophotometer (Ultrospec III, Pharmacia LKB, Uppsala, Sweden). A completed assembly process was observed within 40 min at room temperature. For disassembly inhibition, 3-BAABU (3.3 μM), paclitaxel (23 μM) or vinblastine (22 μM) was added to a cuvet with repolymerized microtubules according to the method described above, and incubated in melting ice. Changes of absorbance (OD) were monitored at 350 nm for 30 min until the OD values in the controls returned to the starting level, i.e., completion of the assembly-disassembly cycle. Solvent solutions were used as control and had no effect in either the assembly or disassembly process.

[5] = LD50 (lethal dose) in mice; conditions: mice, i.p.
Source text: (§1) The in vivo efficacy of 3-BAABU and 3-IAABU of the present invention was asssessed in a murine model, along with known anti-tubule agents, vinblastine and paclitaxel, as a comparative standard. Approximately 10^6 P338 leukemia lymphoma cells/mouse were implanted intra-peritoneal (i.p.) into male C57 BL/6JX mice (Jackson Laboratories, N.Y.). On days 2 and 8 post-implantation, drugs were administrated i.p. at the following concentration ranges: 3-BAABU from 16.6 to 116 μmole/kg, 3-IAABU from 14.4 to 101 μmole/kg, vinblastine from 2.2 to 20 μmole/kg and paclitaxel from 28 to 57 μmole/kg.
(§2) Both control and treated animals were examined for ascitic tumor burden daily for 35 days. […] Therapeutic index was defined as the ratio of LD50 (lethal dose) to ED50 (effective dose).

[6] = system: P338 leukemia lymphoma cells; assay: Survival and ED50 in mice implanted i.p. with P338 lymphoma; assay type: in vivo, male C57 BL/6JX mice
Experimental: FIG. 9 is a plot graph of the survival rate of male C57 BL/6JX mice implanted (i.p.) with P338 lymphoma, from 10 to 40 days after implantation. Two groups were used for the study: a control group of ten and a test group of ten that were treated with 20 mg/kg, (i.p.) of compound 8 at 2 and 8 days post-implantation.
as §1, §2

[7] = CEM cells, concentration killing 90% of the cells, read-out: ID90 (the source's name)

Molecule	Activities of inducing Apoptosis (CEM cells [2])	Activities of inducing Mitotic block (CEM cells [2])	Activities of inducing Necrosis (CEM cells [2])	IC90 (CEM cells [1]; [7])	Mitotic arrest, % (CEM cells [2]; CEM cells)	further results
3-bromopropionylamino benzoylurea [Compound 3-BPABU]	− (−:<10%)	− (−:<10%)	− (−:<10%)			cytotoxic activity (ID50 level) compared with 3-BAABU (CEM cells [1]; CEM leukemic cells): cytotoxic activity was eliminated
NC(=O)NC(=O)c1ccc(NC(=O)CI)cc1 [9 (4-position), 4-iodoacetoamido, benzoylurea]				0.04 µg/mL and 112 nM	<10%	
NC(=O)NC(=O)c1ccc(NC(=O)CBr)cc1 [Compound 4-BAABU, 4-bromoacetylamino benzoylurea]	− (−:<10%)	− (−:<10%)	++++ (++++: >75%)	0.15 µg/mL and 497 nM	<10%	IC50 (CEM cells [1]; CEM leukemic cells): 230 nM; morphological effect on leukemic cells (CEM cells [2]): necrotic cell death
NC(=O)NC(=O)c1cccc(NC(=O)CF)c1 [Compound 6, 3-Fluoroacetoamido, benzoylurea]					<10%	IC90 (CEM cells [1]; read-out: ID90): > 2.5 µg/mL and > 10 µM; cytotoxicity against human leukemic cells (CEM) (CEM cells [1]; at a concentration as high as 10 μM): no cytotoxicity; mitotic arrest (blocking) effect, morphological appearance (CEM cells [2]; CEM cells, 24 h, compound 8 at 0.025 μg/ml, compound 9 at 0.005 μg/ml): failed to induce mitotic arrest; interference with the cell cycle (CEM cells [2]; CEM cells, after 24 hours treatment, 2.5 μg/ml): virtually no interference; shift of the cell population from G0/G1 (2N) to G2/M (4N), DNA profile (CEM cells [3]): undetectable change; also recorded: identical to that of the untreated control; apoptosis, DNA fragmentation on gel electrophoresis (CEM cells [4]): did not induce apoptosis; effect on microtubule assembly (Purified tubulin): no effect
CCOC(=O)c1cccc(NC(=O)CCl)c1 [Compound 10, Ethyl-3-chloroacetoamido, benzoate]				0.82 µg/mL and 3.39 µM	<10%	
CCOC(=O)c1cccc(NC(=O)CBr)c1 [Compound 11, Ethyl-3-bromoacetoamido, benzoate]	++++ (++++: >75%)	− (−:<10%)	− (−:<10%)	0.18 µg/mL and 740 nM	<10%	fold increase of ID50 relative to 3-BAABU (CEM cells [1]; CEM leukemic cells): 10 fold; IC50 (CEM cells [1]; CEM leukemic cells): 590 nM; morphological effect on leukemic cells (CEM cells [2]): caused apoptosis
CC[C@]1(O)C[C@@H]2CN(CCc3c([nH]c4ccccc34)[C@@](C(=O)OC)(c3cc4c(cc3OC)N(C)[C@H]3[C@@](O)(C(=O)OC)[C@H](OC(C)=O)[C@]5(CC)C=CCN6CC[C@]43[C@@H]65)C2)C1 [Vinblastine, vinblastine sulfate]						LD50 [5]: 9.2 µmol/kg; Survival IL % ([6]; P338 Lymphoma (i.p.), 2 mg/kg ip on days 2 & 8): 21%; Survival Mean ± SD ([6]; P338 Lymphoma (i.p.), 2 mg/kg ip on days 2 & 8, control 15.1 ± 2.3): 18.2 ± 6.3; ED50 ([6]; P338 leukemia lymphoma i.p. in mice, drug i.p. on days 2 and 8): 4.5 µmol/kg
